Values belong to the molecule of their own block, whether it stands above or below them.
Assay: solvent given as SMILES

SMILES: CN(C)c1ccc(-c2cc3c(s2)c(C(=O)c2ccccc2)cc(=O)n3Cc2ccccc2)cc1
emission maximum (in CC#N): 521 nm | emission maximum (in ClCCl): 678 nm

SMILES: N#CC=C(c1ccc(N2c3ccccc3Oc3ccccc32)cc1)c1ccc(N2c3ccccc3Oc3ccccc32)cc1
emission maximum (in Cc1ccccc1): 574 nm

SMILES: CC[N+]1(CC)CN2C(=N1)C(C(=O)O)=Cc1cc(OC)c(OC)cc12
emission maximum (in O): 472 nm

SMILES: CN1C(=CC2=C([O-])C(=Cc3oc4ccccc4[n+]3C)C2=C(C#N)C#N)C(C)(C)c2ccccc21
emission maximum (in ClC(Cl)Cl): 673 nm

SMILES: Cc1c(C)c(N2c3ccccc3CCc3ccccc32)c(C)c(C)c1-c1nc(-c2ccccc2)nc(-c2ccccc2)n1
emission maximum (in Cc1ccccc1): 457.94 nm

SMILES: Cc1nc2c(ccc3c2sc(/C=C/c2cc4c5c(c2)CCCN5CCC4)[n+]3C)s1
emission maximum (in CO): 622 nm | emission maximum (in ClC(Cl)Cl): 623 nm

SMILES: CC(C)[Si](C#Cc1c2nc3c(nc2c(C#C[Si](C(C)C)(C(C)C)C(C)C)c2nc4ccccc4nc12)C1c2ccccc2C3c2ccccc21)(C(C)C)C(C)C
emission maximum (in CCCCCC): 563 nm

SMILES: CCCN1c2ccccc2Sc2cc(/C=C\c3cc(=O)oc4cc(O)ccc34)ccc21
emission maximum (in ClC(Cl)Cl): 631 nm

SMILES: C(=C\c1ccncn1)/c1ccc(N2CCCCC2)cc1
emission maximum (in C1CCOC1): 486 nm | emission maximum (in CC#N): 514 nm | emission maximum (in CCCCCCC): 435 nm | emission maximum (in CS(C)=O): 521 nm | emission maximum (in ClCCl): 498 nm

SMILES: CCCCN1C(=S)c2cccc3cccc(c23)C1=S
emission maximum (in Cc1ccccc1): 506 nm

SMILES: Cc1ccc(C2=C3C=C(I)C=[N+]3[B-](F)(F)n3cc(I)cc32)cc1
emission maximum (in C1CCCCC1): 567.5 nm | emission maximum (in CC#N): 573 nm | emission maximum (in CCO): 573 nm | emission maximum (in CCOC(C)=O): 569.5 nm | emission maximum (in CO): 572 nm | emission maximum (in OCC(F)(F)F): 567.5 nm

SMILES: Cc1cc(C)c(C)c(B(c2c(C)c(C)cc(C)c2C)c2c(C)c(C)c(N3c4ccccc4Oc4ccccc43)c(C)c2C)c1C
emission maximum (in CC(C)(C)c1ccc(-n2c3ccc([Si](c4ccccc4)(c4ccccc4)c4ccccc4)cc3c3cc([Si](c4ccccc4)(c4ccccc4)c4ccccc4)ccc32)cc1): 478 nm

SMILES: C=CC1CN2CCC1CC2[C@@H](OCc1ccccc1)c1ccnc2ccc(O)cc12 (some centres undefined)
emission maximum (in C1CCOC1): 358 nm | emission maximum (in CC#N): 362 nm | emission maximum (in CCCC#N): 361 nm | emission maximum (in Cc1ccccc1): 355 nm | emission maximum (in ClCCl): 363 nm

SMILES: c1ccc(-c2c3ccccc3c(-c3ccc(-c4cccnc4)cc3)c3ccccc23)cc1
emission maximum (in ClCCl): 417 nm

SMILES: CCCCCCc1ccc2c3c(ccc2c1)O[B-](F)(F)[N+](c1ccc([N+]2=Cc4c(ccc5cc(CCCCCC)ccc45)O[B-]2(F)F)cc1)=C3
emission maximum (in C1CCOC1): 505 nm | emission maximum (in CC#N): 502 nm | emission maximum (in Cc1ccccc1): 508 nm | emission maximum (in ClCCl): 507 nm

SMILES: COC(=O)c1ccc(-c2ccc(-c3nnc(-c4ccc(-c5nnc(-c6ccc(-c7ccc(C(=O)OC)cc7)s6)o5)cc4)o3)s2)cc1
emission maximum (in C1COCCO1): 400 nm | emission maximum (in CC#N): 400 nm | emission maximum (in CC(=O)N(C)C): 417 nm | emission maximum (in CCCCCCCCCCO): 408 nm | emission maximum (in CCCCCCCCO): 399 nm | emission maximum (in CCCCCCO): 389 nm | emission maximum (in CCCCO): 394 nm | emission maximum (in CCO): 400 nm | emission maximum (in CS(C)=O): 420 nm | emission maximum (in Cc1ccccc1): 399 nm | emission maximum (in ClC(Cl)Cl): 397 nm

SMILES: O=S(=O)([O-])c1ccc2c(O)cc(S(=O)(=O)[O-])cc2c1
emission maximum (in O): 385 nm

SMILES: Oc1ccc2ccccc2c1
emission maximum (in C1CCCCC1): 350.75 nm | emission maximum (in O): 351 nm

SMILES: CN(C)c1ccc(/C=C/C=C/c2nc3ccccc3o2)cc1
emission maximum (in C1COCCO1): 508 nm | emission maximum (in CC#N): 535 nm | emission maximum (in CC(C)=O): 531 nm | emission maximum (in CCCCCC): 474 nm | emission maximum (in CCCCO): 525 nm | emission maximum (in CCCO): 526 nm | emission maximum (in CCO): 531 nm | emission maximum (in CN(C)C=O): 538 nm | emission maximum (in CO): 539 nm | emission maximum (in Cc1ccccc1): 496 nm | emission maximum (in ClC(Cl)(Cl)Cl): 491 nm | emission maximum (in ClC(Cl)Cl): 517 nm | emission maximum (in ClCCl): 525 nm | emission maximum (in OCC(O)CO): 566 nm | emission maximum (in OCCO): 562 nm | emission maximum (in c1ccccc1): 503 nm

SMILES: N#Cc1nn(-c2ccccc2C(F)(F)F)nc1N1CCCC1
emission maximum (in CC#N): 433 nm

SMILES: c1cc2ccc3[s+]c4ccc5cccc6c7cccc8c(c1)c2c3c(c87)c4c56
emission maximum (in ClCCl): 643 nm

SMILES: O=C1c2cccc3cc(C#CC#Cc4cc5c6c(cccc6c4)C(=O)N(c4ccccc4)C5=O)cc(c23)C(=O)N1c1ccccc1
emission maximum (in ClCCl): 421 nm

SMILES: C=CCOc1nnc(OCCC(F)(F)C(F)(F)C(F)(F)C(F)(F)C(F)(F)C(F)(F)F)nn1
emission maximum (in ClCCl): 573 nm | emission maximum (in OCC(F)(F)F): 562 nm

SMILES: Cc1cc(C)n2c1C=C1C(=O)N(C)C(c3ccc([N+](=O)[O-])cc3)=[N+]1[B-]2(F)F
emission maximum (in CCCCCC): 587 nm

SMILES: OC1(c2ccc(-c3cccs3)s2)CCC1
emission maximum (in C1CCOC1): 470 nm | emission maximum (in CC#N): 460 nm | emission maximum (in CCCCCC): 465 nm | emission maximum (in CCO): 415 nm | emission maximum (in OCCOCCO): 465 nm | emission maximum (in c1ccncc1): 468 nm

SMILES: c1ccc(-c2nc(-c3ccccc3)nc(-n3c4ccccc4c4cccc(-n5c6ccccc6c6ccccc65)c43)n2)cc1
emission maximum (in C1CCOC1): 477.86 nm | emission maximum (in Cc1ccccc1): 459.26 nm

SMILES: COc1cccc(-c2c3ccccc3c3n2[B-](F)(F)[N+]2=Cc4c5ccccc5c(-c5cccc(OC)c5)n4[B-](F)(F)[N+]2=C3)c1
emission maximum (in CC#N): 596 nm | emission maximum (in CCCCCC): 598 nm | emission maximum (in CN(C)C=O): 603 nm | emission maximum (in Cc1ccccc1): 608 nm | emission maximum (in ClCCl): 602 nm

SMILES: Cc1ccc2c(c1)C(C)(C)c1cc(C)ccc1N2c1ccc2c(c1)C(C)(C)c1cc(N3c4ccc(C)cc4C(C)(C)c4cc(C)ccc43)ccc1S2(=O)=O
emission maximum (in Cc1ccccc1): 470.07 nm | emission maximum (in ClCCl): 538 nm

SMILES: C[Si]1(C)O[Si](C)(C)c2cc3cc4c(cc3cc21)C(=O)c1cc2cc3c(cc2cc1C4=O)[Si](C)(C)O[Si]3(C)C
emission maximum (in ClC(Cl)Cl): 437 nm

SMILES: Cc1cccc(C2=Cc3c4ccccc4cc[n+]3[B-](F)(F)O2)c1
emission maximum (in ClC(Cl)Cl): 464.8 nm

Other lines, results leading:

emission maximum (in C1CCCCC1): 398 nm
SMILES: COc1ccc(C2=C(c3ccc(OC)cc3)C(C)(C)c3cc(OC)ccc32)cc1

emission maximum (in c1cc(-c2cccc(-n3c4ccccc4c4ccccc43)c2)cc(-n2c3ccccc3c3ccccc32)c1): 475 nm
SMILES: N#Cc1c(-n2c3ccccc3c3ccccc32)nc(-n2c3ccccc3c3ccccc32)c(C#N)c1-c1ccccc1

emission maximum (in CS(C)=O): 720 nm | emission maximum (in OCC(O)CO): 685 nm
SMILES: C[n+]1ccc(/C=C/c2ccc(N(c3ccccc3)c3ccc(/C=C/c4cc[n+](C)cn4)cc3)cc2)nc1

emission maximum (in C1CCOC1): 809 nm | emission maximum (in ClCCl): 811 nm
SMILES: CCC(CC)COC1=CC2=C3c4cc(OCC(CC)CC)c(-c5cccs5)n4[B-](F)(F)[n+]4c3n(c3cc(C(C)(C)C)ccc34)[B-](F)(F)[N+]2=C1c1cccs1

emission maximum (in CC#N): 466 nm | emission maximum (in CO): 484 nm | emission maximum (in ClCCl): 462 nm
SMILES: COc1ccc(OC)c(-c2[nH]c(=O)n3c2-c2ccccc2C3=O)c1

emission maximum (in C1CCOC1): 409 nm
SMILES: F[Si](c1ccccc1)(c1c2ccccc2cc2ccccc12)c1c2ccccc2cc2ccccc12

emission maximum (in C1CCOC1): 577 nm
SMILES: COc1cc2oc(=O)c3c4ccc(N(C)C)cc4c4ccc5cccc6c(c1)c2c3c4c56

emission maximum (in ClC(Cl)Cl): 647 nm
SMILES: F[B-]1(F)n2c(cc3oc4ccccc4c32)C(c2ccc(I)cc2)=C2C=c3oc4ccccc4c3=[N+]21

emission maximum (in C1CCOC1): 608 nm
SMILES: F[B-]1(F)n2c(c(-c3ccccc3)c(-c3ccccc3)c2-c2ccccc2)C=C2C(c3ccccc3)=C(c3ccccc3)C(c3ccccc3)=[N+]21

emission maximum (in CC#N): 395 nm
SMILES: Fc1nc(F)c(F)c(/C=C2/C(c3c(F)c(F)nc(F)c3F)=Cc3ccccc32)c1F

emission maximum (in C1CCOC1): 417 nm | emission maximum (in ClCCl): 423 nm
SMILES: O=P1(c2ccccc2)C(c2ccccc2)=Cc2ccccc21 (centres undefined)

emission maximum (in C1CCCCC1): 704 nm | emission maximum (in CCOC(C)=O): 710 nm
SMILES: CC1=[N+]2C(=C(/C=C/c3ccc(C(F)(F)F)cc3)c3ccc(C)n3[B-]2(F)F)C=C1c1cc2n(c1)[B-](F)(F)[N+]1=CC=CC1=C2c1c(C)cc(C)cc1C

emission maximum (in C1CCCCC1): 500 nm | emission maximum (in CO): 520 nm
SMILES: CN(C)c1ccc(/C=C(\C#N)c2nc3ccccc3s2)cc1

emission maximum (in ClCCl): 563 nm | emission maximum (in c1ccccc1): 534 nm
SMILES: CCCCN(CCCC)c1ccc(C#Cc2cc(C#Cc3c(F)c(F)c(F)c(F)c3F)c(C#Cc3ccc(N(CCCC)CCCC)cc3)cc2C#Cc2c(F)c(F)c(F)c(F)c2F)cc1

emission maximum (in ClC(Cl)Cl): 474 nm
SMILES: Clc1ccc(-c2nc(-c3ccccc3)c(N(c3ccccc3)c3ccccc3)s2)cc1

emission maximum (in CS(C)=O): 420 nm
SMILES: Brc1ccc(-c2nc3sc4ccccc4c3s2)cc1

emission maximum (in ClCCl): 502 nm
SMILES: C[Si]1(C)O[Si](C)(C)c2cc3c(-c4ccccc4)c4ccccc4nc3cc21

emission maximum (in ClCCl): 430 nm
SMILES: CCCCn1c2ccc3ccc4ccccc4c3c2c2c3c(ccc4ccccc43)ccc21

emission maximum (in ClC(Cl)Cl): 536 nm | emission maximum (in ClCCl): 546 nm
SMILES: O=[N+]([O-])c1ccc(C#Cc2ccc3ccccc3c2)cc1

emission maximum (in ClCCl): 528 nm
SMILES: CCCCCCc1cc2c3c(c1)c(=C1c4ccccc4S(=O)(=O)c4ccccc41)c1cc(CCCCCC)cc4c1N3c1c(cc(CCCCCC)cc1c4=C1c3ccccc3S(=O)(=O)c3ccccc31)c2=C1c2ccccc2S(=O)(=O)c2ccccc21

emission maximum (in CC#N): 567 nm | emission maximum (in CCCCCC): 568 nm | emission maximum (in CCOC(C)=O): 567 nm | emission maximum (in CO): 563 nm | emission maximum (in ClCCl): 569 nm
SMILES: CCCSc1ccc2n1[B-](F)(F)[N+]1=C(SC#N)C=CC1=C2c1ccccc1

emission maximum (in CO): 802 nm
SMILES: CC1(C)C(/C=C/C2=C(Cl)C(=C/C=C3/N(CCCS(=O)(=O)[O-])c4ccccc4C3(C)C)/CCC2)=[N+](CCCS(=O)(=O)[O-])c2ccccc21

emission maximum (in ClCCl): 529 nm
SMILES: CCCCCCCCCCCCN1C(=O)c2c(c3ccc4cc(-c5ccc(C)cc5)c(OC)cc4c3c3c2ccc2cc(-c4ccc(C)cc4)c(OC)cc23)C1=O

emission maximum (in CO): 817 nm
SMILES: CC1(C)C(/C=C/C=C/C=C/C=C2/N(CCCCS(=O)(=O)[O-])c3ccc4ccccc4c3C2(C)C)=[N+](CCCCS(=O)(=O)[O-])c2ccc3ccccc3c21

emission maximum (in ClCCl): 421 nm
SMILES: Oc1ccc(Br)cc1-c1nc2c(c3c1-c1ccccc1CC3)-c1ccccc1CC2

— the Deep4Chem optical property database
